Laboratory results as given in the supplement of paper PMC13380429.
± gives the standard deviation of the averaged measurements.

What was measured:
Conditions in all cases: 72 h
Vero E6 [1] = experiment: drug sensitivity score (DSS) for viability; higher = more toxic; extreme values may be limits of the assay
Calu-3 [2] = experiment: as above
HepG2 [3] = experiment: as above
U2OS [4] = experiment: as above
Caco-2 [5] = experiment: as above
Vero E6 [6] = experiment: cell viability relative to DMSO; higher = less toxic
Calu-3 [7] = experiment: as above
HepG2 [8] = experiment: as above
U2OS [9] = experiment: as above
Caco-2 [10] = experiment: as above
Vero E6 [11] = experiment: relative viability EC50 (midpoint between 100% and the lowest measured viability); higher = less toxic
Calu-3 [12] = experiment: as above
HepG2 [13] = experiment: as above
U2OS [14] = experiment: as above
Caco-2 [15] = experiment: as above

Compound | drug sensitivity score (Vero E6 [1]) | drug sensitivity score (Calu-3 [2]) | drug sensitivity score (HepG2 [3]) | drug sensitivity score (U2OS [4]) | drug sensitivity score (Caco-2 [5]) | cell viability (Vero E6 [6]; 1 nM) [%] | cell viability (Vero E6 [6]; 10 nM) [%] | cell viability (Vero E6 [6]; 100 nM) [%] | cell viability (Vero E6 [6]; 1000 nM) [%] | cell viability (Vero E6 [6]; 10000 nM) [%] | cell viability (Calu-3 [7]; 1 nM) [%] | cell viability (Calu-3 [7]; 10 nM) [%] | cell viability (Calu-3 [7]; 100 nM) [%] | cell viability (Calu-3 [7]; 1000 nM) [%] | cell viability (Calu-3 [7]; 10000 nM) [%] | cell viability (HepG2 [8]; 1 nM) [%] | cell viability (HepG2 [8]; 10 nM) [%] | cell viability (HepG2 [8]; 100 nM) [%] | cell viability (HepG2 [8]; 1000 nM) [%] | cell viability (HepG2 [8]; 10000 nM) [%] | cell viability (U2OS [9]; 1 nM) [%] | cell viability (U2OS [9]; 10 nM) [%] | cell viability (U2OS [9]; 100 nM) [%] | cell viability (U2OS [9]; 1000 nM) [%] | cell viability (U2OS [9]; 10000 nM) [%] | cell viability (Caco-2 [10]; 1 nM) [%] | cell viability (Caco-2 [10]; 10 nM) [%] | cell viability (Caco-2 [10]; 100 nM) [%] | cell viability (Caco-2 [10]; 1000 nM) [%] | cell viability (Caco-2 [10]; 10000 nM) [%] | relative viability EC50 (Vero E6 [11]) [µM] | relative viability EC50 (Calu-3 [12]) [µM] | relative viability EC50 (HepG2 [13]) [µM] | relative viability EC50 (U2OS [14]) [µM] | relative viability EC50 (Caco-2 [15]) [µM]
CN(C)CCC(c1ccc(Br)cc1)c1ccccn1 (stereo not given) [brompheniramine] | 0 | 0 | 0 | 0 | 0 | 98.8 | 102 | 100 | 105 | 94.9 | 94.9 | 99.5 | 96.6 | 94.5 | 88.9 | 99.3 | 98.5 | 96.4 | 93.7 | 88.1 | 106 | 101 | 102 | 97.6 | 102 | 92.3 | 75.3 | 96.6 | 101 | 96.2 | > 10 | > 10 | > 10 | > 10 | > 10
O=C1OC(c2ccc(O)cc2)(c2ccc(O)cc2)c2ccccc21 [phenolphthalein] | 0 | 0 | 0 | 0 | 0 | 95.8 | 93.2 | 87.4 | 95.3 | 107 | 96.1 | 94.8 | 94.2 | 102 | 102 | 131 | 76.1 | 112 | 105 | 119 | 99.1 | 96.1 | 99.7 | 97 | 105 | 86.3 | 77.8 | 99.7 | 93.2 | 102 | > 10 | > 10 | > 10 | > 10 | > 10
O=C(O)C1(C(=O)O)CCC1.[NH2-].[NH2-].[Pt+2] [carboplatin] | 0 | 0 | 0 | 0 | 0 | 99.6 | 92.5 | 103 | 98.4 | 109 | 90.8 | 98.8 | 93.6 | 90.7 | 106 | 106 | 98.7 | 99.5 | 90.7 | 103 | 94.3 | 95.9 | 93.2 | 100 | 108 | 97.8 | 102 | 85.4 | 94.9 | 100 | > 10 | > 10 | > 10 | > 10 | > 10
COc1cccc2c1C(=O)c1c(O)c3c(c(O)c1C2=O)C[C@@](O)(/C(CO)=N/NC(=O)CCCCCN1C(=O)C=CC1=O)C[C@@H]3O[C@H]1C[C@H](N)[C@H](O)[C@H](C)O1 [aldoxorubicin] | 5.8 | 13.2 | 21.6 | 14.2 | 11.7 | 105 | 101 | 103 | 82 | 41.9 | 93.4 | 98.1 | 75.7 | 45.1 | 28 | 97.4 | 94 | 50.3 | 20.3 | 5.8 | 102 | 98.4 | 94.8 | 28.5 | 6 | 104 | 102 | 93.2 | 41.4 | 30.9 | 1.38 | 0.233 | 0.102 | 0.513 | 0.367
CC(C)c1c2cc(-c3ccnc(N[C@H]4CC[C@H](NC5CCOCC5)CC4)n3)ccc2nn1C | 7.6 | 7.7 | 19.1 | 12 | 9.6 | 93.8 | 96.7 | 88 | 86 | 4.7 | 105 | 107 | 108 | 60.3 | 43.3 | 98.9 | 101 | 83.2 | 10.1 | 9.8 | 99 | 95 | 99.8 | 42.8 | 4.6 | 94.6 | 96.6 | 94.8 | 53.6 | 31.3 | 2 | 0.719 | 0.18 | 0.851 | 0.589
CC(=O)N(C)c1cccc(-c2ccnc3c(C(=O)c4cccs4)cnn23)c1 [indiplon] | 0 | 0 | 1.3 | 0 | 0 | 105 | 102 | 97.1 | 107 | 91.3 | 99.4 | 98.2 | 91.6 | 96.3 | 101 | 100 | 103 | 97.3 | 96.7 | 77.3 | 112 | 99.4 | 101 | 96.5 | 100 | 100 | 92.6 | 93.5 | 103 | 92.1 | > 10 | > 10 | > 10 | > 10 | > 10
CCC1(C)CC(=O)NC(=O)C1 [bemegride] | 0 | 0 | 0 | 0 | 0 | 98.2 | 102 | 94.6 | 99.1 | 112 | 92.2 | 114 | 101 | 105 | 98.1 | 102 | 101 | 108 | 90.8 | 112 | 100 | 96.6 | 98.6 | 99.8 | 102 | 102 | 90.1 | 90.8 | 94.8 | 98.8 | > 10 | > 10 | > 10 | > 10 | > 10
COc1ccc(Br)cc1S(=O)(=O)NC(=O)/C=C/c1ccccc1Cc1ccc2ccccc2c1 | 0 | 1.7 | 0 | 0 | 0.1 | 96 | 98.6 | 95.3 | 90.8 | 101 | 94.2 | 106 | 88 | 86.5 | 97.9 | 96.4 | 96.5 | 95.8 | 98.9 | 102 | 99.9 | 98.3 | 94.4 | 98.9 | 95.8 | 104 | 94 | 99.1 | 97.8 | 87.5 | > 10 | > 10 | > 10 | > 10 | > 10
Nc1cccc2c(=O)[nH][nH]c(=O)c12 [monosodium-alpha-luminol] | 0 | 0 | 0 | 0 | 0 | 102 | 92.7 | 96.1 | 95.2 | 106 | 98.5 | 100 | 97.4 | 105 | 105 | 95.9 | 89.7 | 104 | 89.8 | 113 | 98 | 102 | 95.4 | 102 | 103 | 93 | 88.6 | 90.3 | 92.7 | 97.7 | > 10 | > 10 | > 10 | > 10 | > 10
CCC(C)CCCC(=O)N[C@@H](CCN)C(=O)N[C@H](C(=O)N[C@@H](CCN)C(=O)N[C@H]1CCNC(=O)[C@H]([C@@H](C)O)NC(=O)[C@H](CCN)NC(=O)[C@H](CCN)NC(=O)[C@H](CC(C)C)NC(=O)[C@@H](CC(C)C)NC(=O)[C@H](CCN)NC1=O)[C@@H](C)O (stereo not given in full) [colistin] | 0 | 0.95 ± 1.3 | 0 | 0 | 0 | 101 ± 2.5 | 101 ± 2.5 | 104 ± 2.5 | 98.5 ± 1.2 | 103 ± 1.6 | 100 ± 4 | 93.4 ± 4.2 | 94.3 ± 4.8 | 98 ± 15 | 85.4 ± 7.2 | 94 ± 1.7 | 105 ± 2 | 99.3 ± 11 | 103 ± 2 | 97.5 ± 8.1 | 99.7 ± 1.4 | 100 ± 2 | 97.8 ± 0.14 | 102.75 ± 0.071 | 99.2 ± 1.1 | 94.7 ± 6.2 | 98.4 ± 1.8 | 101 ± 7.6 | 104 ± 1.4 | 101 ± 10 | > 10 | > 10 | > 10 | > 10 | > 10
CC(=O)N1CCN(C)CC1 [1-acetyl-4-methylpiperazine] | 0 | 0 | 0 | 0 | 0 | 105 | 104 | 104 | 98.2 | 95.9 | 89.8 | 86.6 | 95 | 100 | 93.8 | 104 | 111 | 101 | 99.5 | 100 | 103 | 99.1 | 96.2 | 99.8 | 102 | 100 | 93.6 | 101 | 95.7 | 97.3 | > 10 | > 10 | > 10 | > 10 | > 10
